Test results published in article PMC6539868, “Syntheses and Biological Studies of Cu(II) Complexes Bearing Bis(pyrazol-1-yl)- and Bis(triazol-1-yl)-acetato Heteroscorpionate Ligands” (Molecules, 2019).

Key:
[1] = tested on: panel of human cancer cell lines derived from solid tumors; test: MTT cytotoxicity, whole panel of human cancer cell lines; format: cell-based; details: mean over the cell lines of Table 2, 72 h
Procedure: (§1) The growth inhibitory effect towards 2D tumor cell lines was evaluated by means of MTT assay as previously described. IC50 values were calculated by four parameters logistic (4-PL) model. All the values are the means ± SD of not less than five measurements starting from three different cell cultures.
(§2) The in vitro antitumor activity of copper(II) complexes 1–3 and the uncoordinated ligands [HC(COOH)(pz^Me2)2], [HC(COOH)(pz)2] and [HC(COOH)(tz)2] was evaluated against a panel of human cancer cell lines derived from solid tumors. Adherent cell lines representative of cervical (A431), pancreatic (BxPC3) colon (HCT-15), breast (MCF-7), lung (A549), and ovarian (2008) cancers, differently sensitive to cisplatin, were exposed to the indicated compounds for 72 h.
(§3) HCT-15 colon cancer cells are notoriously poorly chemosensitive to cisplatin. […] As for cisplatin, the clinical effectiveness of OXP is seriously hampered by the cancer cell resistance and, at present, few other drug regimens are available for patients with OXP-refractory colorectal cancers. […] The RF values (calculated by dividing IC50 for resistant cells by those for sensitive ones) were about 10 times lower than that of OXP, excluding the occurrence of cross-resistance phenomena.

Stability to air = format: physicochemical; details: also as solutions
LoVo cells [2] = test: Transmission electron microscopy (TEM) analysis; format: cell-based, human; details: IC50 of compound, 24 h
Procedure: Approximately 10^6 LoVo cells were seeded in 24-well plates and, after 24 h incubation, treated with 1 and incubated further 24 h. Samples were then washed with cold PBS, harvested and fixed with 1.5% glutaraldehyde buffer with 0.2 M sodium cacodylate, pH 7.4. After washing with buffer and post-fixation with 1% OsO4 in 0.2 M cacodylate buffer, samples were desiccated and embedded in epoxy resin (Epon Araldite). Sagittal serial sections of about 1 μm were counterstained with toluidine blue; subsequently, sections of 90 nm were stained with uranyl acetate and lead citrate.
Micrographs were taken with a Hitachi H-600 electron microscope (Hitachi, Tokyo, Japan) at 75 kV. All photos were elaborated in Corel Draw 11 (Corel Corporation, Ottawa, ON, Canada).
Transmission electron microscopy (TEM) analysis has been performed in order to investigate the influence of copper compounds on LoVo cells morphology and their organelles.

Solubility = format: physicochemical
LoVo cells [3] = test: Cellular uptake (intracellular copper by GF-AAS); format: cell-based, human; details: 24 h, 2 μM
Procedure: LoVo cells (2.5 × 10^6) were seeded in 75 cm^2 flasks in growth medium (20 mL). After overnight incubation, the medium was replaced, and the cells were treated with tested compounds for 24 h. Cell monolayers were then processed and mineralized as previously described. The sample was analyzed for copper by using a Varian AA Duo graphite furnace atomic absorption spectrometer (Varian, Palo Alto, CA, USA) at the wavelength of 324 nm. The calibration curve was obtained using known concentrations of standard solutions purchased from Sigma Chemical Co.
With the purpose of underling a possible correlation between cellular uptake efficiency and cytotoxicity, LoVo cells were treated for 24 h with equimolar concentrations (2 μM) of copper(II) complexes and the intracellular copper amount was quantified by means of Graphite Furnace Atomic Absorption Spectrometry (GF-AAS) analysis. […] In fact, the intracellular copper content detected in LoVo cells follows the same cytotoxicity trend 1 > 2 > 3.

[4] = tested on: HCT-15 colon cancer cell spheroids; test: Acid phosphatase (APH) assay in 3D spheroids; format: cell-based, human; details: 72 h, APH test, read-out: IC50 (µM) ± S.D. HCT-15 spheroids
Procedure: Spheroid cultures were obtained by seeding 2.5 × 10^3 HCT-15 cells/well in round bottom non-tissue culture treated 96 well-plate (Greiner Bio-one, Kremsmünster, Austria) in phenol red free RPMI-1640 medium (Sigma Chemical Co.), containing 10% FCS and supplemented with 20% methyl cellulose stock solution.
An APH modified assay was used for determining cell viability in 3D spheroids, as previously described. IC50 values were calculated with a four parameter logistic (4-PL) model. All the values are the means ± SD of not less than four independent experiments.
The in vitro antitumor efficacy of the newly developed compounds was also tested on 3D colon cancer cell culture models. Differently from 2D monolayer culture, 3D spheroid cell culture systems comprise cancer cells in various cell growth stages. Consequently, the multicellular cancer spheroid model is recognized to better reflect the tumor mass in vivo regarding drug permeation, cell interactions, gene expression, hypoxia and nutrient gradients with respect to monolayer cell cultures. Table 4 summarizes the IC50 values obtained after treatment of 3D cell spheroids of human HCT-15 colon cancer cells with copper(II) compounds as well as with cisplatin, as reference drug. In accordance with 2D chemosensitivity assays, complex 3 was scarcely effective, whereas complex 1 was as effective as cisplatin. […] We hypothesize that in this non-proliferative and very resistant tumor model the higher lipophilicity of 1, due to the presence of methyl substituents on the pyrazolyl rings, might be responsible for the enhanced compound penetration in the core area of spheroids.

LoVo = test: MTT cytotoxicity assay, cross-resistance profile; format: cell-based, human; details: 72 h, MTT test, oxaliplatin-sensitive colon cancer cells; read-out: IC50 (µM) ± S.D. LoVo
Source text: (§4) Human lung (A549), colon (HCT-15 and LoVo) and breast (MCF-7) carcinoma cell lines were obtained from American Type Culture Collection (ATCC, Rockville, MD, USA). Human pancreatic BxPC3 carcinoma cells were obtained from European Collection of Cell Culture (ECACC, Salisbury, UK). Human ovarian 2008 cancer cells were kindly provided by Prof. G. Marverti (Dept. of Biomedical Science of Modena University, Modena, Italy). Human squamous cervical A431 carcinoma cells were kindly provided by Prof. F. Zunino (Division of Experimental Oncology B, Istituto Nazionale dei Tumori, Milan, Italy). The LoVo-OXP cells were obtained as previously described. Cell lines were maintained in culture in the logarithmic phase at 37 °C in a 5% carbon dioxide atmosphere using the following media added of 10% fetal calf serum (Euroclone, Milan, Italy), antibiotics (50 units/mL penicillin and 50 μg/mL streptomycin), and 2 mM L-glutamine: (i) RPMI-1640 medium (Euroclone) for HCT-15, A431, MCF-7, BxPC3 and 2008 cells; (ii) F-12 HAM’S (Sigma Chemical Co.) for A549, LoVo and LoVo-OXP cells.
as §1, §3

LoVo-OXP = test: MTT cytotoxicity assay, cross-resistance profile; format: cell-based, human
Source text: as §4, §1, §3

A431 = test: MTT cytotoxicity assay, 2D monolayer; format: cell-based, human; details: 72 h, MTT test, cervical carcinoma; read-out: IC50 (µM) ± S.D. A431
Source text: as §4, §1, §2

2008 = test: MTT cytotoxicity assay, 2D monolayer; format: cell-based, human; details: 72 h, MTT test, ovarian cancer; read-out: IC50 (µM) ± S.D. 2008
Source text: as §4, §1, §2

BxPC3 = test: MTT cytotoxicity assay, 2D monolayer; format: cell-based, human; details: 72 h, MTT test, pancreatic carcinoma; read-out: IC50 (µM) ± S.D. BxPC3
Source text: as §4, §1, §2

A549 = test: MTT cytotoxicity assay, 2D monolayer; format: cell-based, human; details: 72 h
Source text: as §4, §1, §2

MCF-7 = test: MTT cytotoxicity assay, 2D monolayer; format: cell-based, human; details: 72 h, MTT test, breast carcinoma; read-out: IC50 (µM) ± S.D. MCF-7
Source text: as §4, §1, §2

HCT-15 = test: MTT cytotoxicity assay, 2D monolayer; format: cell-based, human; details: 72 h
Source text: as §4, §1, §2

LoVo cells [5] = test: ROS production (CM-H2DCFDA); format: cell-based, human; details: 15 μM complexes, antimycin 3 μM
Procedure: The production of ROS was measured in LoVo cells (10^4 per well) grown for 24 h in a 96-well plate in RPMI medium without phenol red. Samples were loaded with 10 μM 5-(and-6)-chloromethyl-2′,7′-dichlorodihydrofluorescein diacetate acetyl ester (CM-H2DCFDA) (Molecular Probes-Invitrogen, Eugene, OR, USA) for 25 min, in the dark. Afterward, each well was washed with PBS and incubated with tested complexes. The fluorescence intensity in each well was assessed by means of a Fluoroskan Ascent FL (Labsystem, Vantaa, Finland) plate reader (ex: 485 nm; em: 527 nm). Antimycin (3 μM, Sigma), a well-known inhibitor of the electron transport chain at Complex III level, was used as reference compound.
It has been documented that oxidative stress and generation of ROS play a significant role in anticancer activity of copper(II) compounds [22, 81]. To explore the molecular mechanisms underlying the cytotoxicity of newly synthetized copper(II) complexes, cellular production of ROS upon treatment with 15 μM of complex 1, 2 or 3 was monitored in LoVo cells by using the peroxide-sensitive fluorescent probe CM-H2DCFDA (Figure 5). […] Conversely, for all copper complexes there was no ROS induction.

In the case of `Cc1cc(C)n(C(C(=O)O)n2nc(C)cc2C)n1.Cc1cc(C)n(C(C(=O)[O-])n2nc(C)cc2C)n1.[Cu+2].[O-][Cl+3]([O-])([O-])[O-]` [compound 1, [HC(COOH)(pz^Me2)2]Cu[HC(COO)(pz^Me2)2]·ClO4], the IC50 [1] is reported as 6.5 µM, the air stability (Stability to air) is reported as “air stable even as solutions” and the “cytoplasmic vacuolization (TEM morphology)” value (LoVo cells [2]) is reported as “massive cytoplasmic vacuolization”. The “hallmarks of apoptosis (TEM morphology)” value (LoVo cells [2]) was “no classical hallmarks of apoptosis”, the “solubility in methanol, DMSO and acetonitrile” value (Solubility; methanol, DMSO, acetonitrile) was “soluble” and the solubility in water (Solubility; water) was “slightly soluble”. The “cellular uptake efficiency (intracellular copper amount)” value (LoVo cells [3]) was “taken up slightly more efficiently than complex 2”, the IC50 [4] was 67.8 ± 14.9 µM and the IC50 (LoVo) was 4.2 ± 0.9 µM. For the same compound, the IC50 (LoVo-OXP; 72 h, MTT test, oxaliplatin-resistant colon cancer cells, read-out: IC50 (µM) ± S.D. LoVo-OXP) was 5.2 ± 0.6 µM, the “RF times lower than that of OXP” value (LoVo-OXP; LoVo-OXP/LoVo) was “about 10 times” and the “RF (resistance factor)” value (LoVo-OXP; RF = IC50 (resistant cells)/IC50 (wild-type cells), LoVo-OXP/LoVo) was 1.2. For the same compound, the IC50 (A431) was 3.8 ± 1.1 µM, the IC50 2008 was 10.8 ± 1.3 µM and the IC50 (BxPC3) was 2.5 ± 0.4 µM. The IC50 (A549; MTT test, lung carcinoma, read-out: IC50 (µM) ± S.D. A549) was 3.6 ± 0.5 µM, the “fold more effective than cisplatin” value (A549; A549 cells, MTT) was “roughly 2 fold” and the IC50 (MCF-7) was 10.5 ± 2.1 µM. For the same compound, the IC50 (HCT-15; MTT test, colon carcinoma, read-out: IC50 (µM) ± S.D. HCT-15) was 8.5 ± 0.6 µM and the “fold more effective than cisplatin” value (HCT-15; HCT-15 cells, MTT) was “roughly 2 fold”.
In the case of Antimycin, the ROS production (LoVo cells [5]) is reported as “markedly stimulated ROS formation”.
